Results reported in ChEMBL document CHEMBL5143588, “Discovery, Synthesis, and Biological Evaluation of Anaenamides C and D from a New Marine Cyanobacterium, Hormoscilla sp” (J Nat Prod, 2022).
Calls of active or inactive are those of the source. No cut-off for these calls is given here.

Key:
[1] = molecular target: T1, Nuclear factor erythroid 2-related factor 2 (Homo sapiens) (UniProt Q16236); assay: Activation of Nrf2 in human HEK293-ARE-Luc cells assessed as fold activation of luciferase activity at 100 uM incubated for 24 hrs by ARE-luciferase reporter gene assay; format: cell-based; settings: filed as activator
T1 sequence (whole entry): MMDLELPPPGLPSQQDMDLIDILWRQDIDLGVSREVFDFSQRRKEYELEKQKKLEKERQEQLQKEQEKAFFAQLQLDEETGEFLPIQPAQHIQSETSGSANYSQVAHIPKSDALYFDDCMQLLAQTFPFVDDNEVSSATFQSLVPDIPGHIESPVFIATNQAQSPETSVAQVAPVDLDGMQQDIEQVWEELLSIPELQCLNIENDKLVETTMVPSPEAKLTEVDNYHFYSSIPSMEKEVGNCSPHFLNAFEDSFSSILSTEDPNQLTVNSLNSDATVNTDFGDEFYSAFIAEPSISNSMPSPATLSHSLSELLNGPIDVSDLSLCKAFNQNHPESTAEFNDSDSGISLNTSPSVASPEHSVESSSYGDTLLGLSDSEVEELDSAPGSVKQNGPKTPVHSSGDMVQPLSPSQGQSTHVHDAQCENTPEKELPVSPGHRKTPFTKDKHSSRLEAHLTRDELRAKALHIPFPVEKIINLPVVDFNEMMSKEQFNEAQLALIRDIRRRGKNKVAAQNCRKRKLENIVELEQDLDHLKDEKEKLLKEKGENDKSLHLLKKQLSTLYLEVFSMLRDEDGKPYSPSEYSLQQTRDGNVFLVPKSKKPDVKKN

[2] = molecular target: T1, Nuclear factor erythroid 2-related factor 2 (Homo sapiens); assay: Activation of Nrf2 in human HEK293-ARE-Luc cells assessed as fold activation of luciferase activity at 32 uM incubated for 24 hrs by ARE-luciferase reporter gene assay; format: cell-based; settings: filed as activator
[3] = system: HCT-116; assay: Cytotoxicity against human HCT116 cells assessed as inhibition of cell viability incubated for 48 hrs by MTT assay; format: functional, cell-based; settings: HCT-116, 48 h
[4] = system: HEK293; assay: Cytotoxicity against human HEK293-ARE-Luc cells assessed as change in cell viability incubated for 24 hrs by MTT assay; format: toxicity, cell-based; settings: hek293, 24 h
[5] = molecular target: T1, Nuclear factor erythroid 2-related factor 2 (Homo sapiens); assay: Activation of Nrf2 in human HEK293-ARE-Luc cells at 10 to 100 uM incubated for 24 hrs by ARE-luciferase reporter gene assay; format: cell-based; settings: filed as activator, dose 10-100 µM
[6] = system: HEK293; assay: Cytotoxicity against human HEK293-ARE-Luc cells assessed as reduction in cell viability at 10 to 100 uM incubated for 24 hrs by MTT assay; format: toxicity, cell-based; settings: hek293, 24 h, dose 10-100 µM

Row | fold change (FC) [2] | Compound | IC50 [3] | further results
1 | 15 | CCCCCc1cccc(OC)c1C(=O)O[C@@H](C(=O)O[C@@H](C)C(=O)NC/C=C(\Cl)C(N)=O)[C@@H](C)CC | 42 µM | –
2 | 29 | CC(C)(C)c1cc(O)ccc1O [E319] | – | Activity [4]: Non-Toxic
3 | 17 | CCCCCc1cccc(OC)c1C(=O)O[C@@H](C(=O)O[C@@H](C)C(=O)NC/C=C(/Cl)C(N)=O)[C@@H](C)CC | 32 µM | –

Second part, the molecule before the results:

Row | Compound | fold change (FC) [2] | IC50 [3] | further results
4 | CCCCCc1cccc(OC)c1C(=O)O[C@@H](C(=O)O[C@@H](C)C(=O)NC/C=C(/Cl)C(=O)NC(c1ccccc1)(c1ccccc1)c1ccccc1)[C@@H](C)CC | – | – | fold change (FC) [1]: 6
5 | CCCCCc1cccc(OC)c1C(=O)O[C@@H](C(=O)O[C@@H](C)C(=O)NC/C=C(\Cl)C(=O)NC(c1ccccc1)(c1ccccc1)c1ccccc1)[C@@H](C)CC | – | – | fold change (FC) [1]: 11
6 | CCCCCc1cccc(OC)c1C(=O)O[C@@H](C(=O)O[C@@H](C)C(=O)NC/C=C(\Cl)C(=O)OC)[C@@H](C)CC | – | 9 µM | Activity [5]: Active; Activity [6]: Toxic
7 | CCCCCc1cccc(OC)c1C(=O)O[C@@H](C(=O)O[C@@H](C)C(=O)NC/C=C(/Cl)C(=O)OC)[C@@H](C)CC | – | 5 µM | Activity [5]: Active; Activity [6]: Toxic
